Publication PMC11302589 (Organic & biomolecular chemistry, 2012)

What was measured:
β-galactosidase = target: T1, β-galactosidase (Aspergillus oryzae, UniProt Q2UCU3); assay type: biochemical
T1 sequence (Q2UCU3 19-1005): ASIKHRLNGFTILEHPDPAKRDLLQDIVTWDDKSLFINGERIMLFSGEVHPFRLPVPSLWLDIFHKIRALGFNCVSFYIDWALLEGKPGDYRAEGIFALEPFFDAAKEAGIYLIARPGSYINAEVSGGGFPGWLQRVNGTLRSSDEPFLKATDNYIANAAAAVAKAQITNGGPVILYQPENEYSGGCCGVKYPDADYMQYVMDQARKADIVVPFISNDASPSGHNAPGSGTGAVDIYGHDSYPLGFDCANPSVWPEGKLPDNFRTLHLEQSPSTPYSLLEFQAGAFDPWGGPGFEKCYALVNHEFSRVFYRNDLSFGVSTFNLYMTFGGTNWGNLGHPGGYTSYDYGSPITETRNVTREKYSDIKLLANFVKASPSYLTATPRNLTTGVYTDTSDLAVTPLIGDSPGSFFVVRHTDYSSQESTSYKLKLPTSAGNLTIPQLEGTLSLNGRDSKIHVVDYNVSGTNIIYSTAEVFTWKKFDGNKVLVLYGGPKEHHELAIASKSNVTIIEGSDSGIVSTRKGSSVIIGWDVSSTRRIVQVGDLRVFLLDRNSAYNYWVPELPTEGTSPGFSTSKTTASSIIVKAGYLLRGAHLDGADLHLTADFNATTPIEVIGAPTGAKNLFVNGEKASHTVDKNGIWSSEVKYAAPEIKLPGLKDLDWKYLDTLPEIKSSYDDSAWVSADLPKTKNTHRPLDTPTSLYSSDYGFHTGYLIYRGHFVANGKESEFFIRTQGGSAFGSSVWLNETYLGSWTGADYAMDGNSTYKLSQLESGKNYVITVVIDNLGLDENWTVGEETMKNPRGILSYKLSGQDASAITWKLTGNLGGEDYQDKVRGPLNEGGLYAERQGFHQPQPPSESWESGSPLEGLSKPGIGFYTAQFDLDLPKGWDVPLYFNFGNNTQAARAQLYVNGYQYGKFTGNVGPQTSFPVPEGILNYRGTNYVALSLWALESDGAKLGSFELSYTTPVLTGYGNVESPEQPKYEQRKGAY

[1] = target: Salmonella typhimurium sialidase (Salmonella typhimurium, UniProt P29768); assay: biochemical
Chain of Salmonella typhimurium sialidase (P29768 whole entry): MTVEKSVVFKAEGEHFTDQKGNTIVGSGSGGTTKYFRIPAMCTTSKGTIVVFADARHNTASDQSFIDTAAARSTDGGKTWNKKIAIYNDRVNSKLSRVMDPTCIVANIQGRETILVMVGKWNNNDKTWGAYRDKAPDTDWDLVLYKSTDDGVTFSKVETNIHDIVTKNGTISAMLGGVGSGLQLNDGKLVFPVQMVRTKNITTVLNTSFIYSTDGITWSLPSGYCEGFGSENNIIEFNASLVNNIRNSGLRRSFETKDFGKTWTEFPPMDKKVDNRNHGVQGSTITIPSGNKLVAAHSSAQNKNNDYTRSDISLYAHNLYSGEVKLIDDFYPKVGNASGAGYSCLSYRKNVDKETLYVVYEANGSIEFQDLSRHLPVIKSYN

[2] = target: Vibrio cholerae sialidase (type III) (Vibrio cholerae serotype O1, UniProt P0C6E9); assay: biochemical; assay type: biochemical; details: for IC50: V. cholerae
Chain of Vibrio cholerae sialidase (type III) (P0C6E9 25-781 limits assumed): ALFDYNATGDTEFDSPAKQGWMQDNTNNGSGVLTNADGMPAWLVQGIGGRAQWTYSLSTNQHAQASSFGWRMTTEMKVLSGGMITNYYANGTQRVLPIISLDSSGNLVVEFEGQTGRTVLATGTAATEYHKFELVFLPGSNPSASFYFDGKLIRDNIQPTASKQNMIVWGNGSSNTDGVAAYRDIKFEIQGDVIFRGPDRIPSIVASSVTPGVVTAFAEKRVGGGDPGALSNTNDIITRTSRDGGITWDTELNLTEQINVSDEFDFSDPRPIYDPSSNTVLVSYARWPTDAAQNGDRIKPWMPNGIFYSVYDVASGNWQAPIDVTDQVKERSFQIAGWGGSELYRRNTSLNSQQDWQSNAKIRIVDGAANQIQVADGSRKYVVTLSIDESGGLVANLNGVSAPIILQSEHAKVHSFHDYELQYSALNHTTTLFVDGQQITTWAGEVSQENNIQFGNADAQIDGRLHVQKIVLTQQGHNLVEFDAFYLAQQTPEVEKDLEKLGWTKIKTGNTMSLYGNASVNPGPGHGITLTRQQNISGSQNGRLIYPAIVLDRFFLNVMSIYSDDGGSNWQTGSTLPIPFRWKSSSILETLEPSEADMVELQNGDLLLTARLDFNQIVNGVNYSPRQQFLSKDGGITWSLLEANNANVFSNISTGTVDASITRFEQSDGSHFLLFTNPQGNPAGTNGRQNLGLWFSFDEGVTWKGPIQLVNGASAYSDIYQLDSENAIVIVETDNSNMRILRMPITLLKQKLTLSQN

[3] = target: Streptococcus pneumoniae sialidase NanB (Streptococcus pneumoniae serotype 4, UniProt Q54727); assay: biochemical
Chain of Streptococcus pneumoniae sialidase NanB (Q54727 30-697): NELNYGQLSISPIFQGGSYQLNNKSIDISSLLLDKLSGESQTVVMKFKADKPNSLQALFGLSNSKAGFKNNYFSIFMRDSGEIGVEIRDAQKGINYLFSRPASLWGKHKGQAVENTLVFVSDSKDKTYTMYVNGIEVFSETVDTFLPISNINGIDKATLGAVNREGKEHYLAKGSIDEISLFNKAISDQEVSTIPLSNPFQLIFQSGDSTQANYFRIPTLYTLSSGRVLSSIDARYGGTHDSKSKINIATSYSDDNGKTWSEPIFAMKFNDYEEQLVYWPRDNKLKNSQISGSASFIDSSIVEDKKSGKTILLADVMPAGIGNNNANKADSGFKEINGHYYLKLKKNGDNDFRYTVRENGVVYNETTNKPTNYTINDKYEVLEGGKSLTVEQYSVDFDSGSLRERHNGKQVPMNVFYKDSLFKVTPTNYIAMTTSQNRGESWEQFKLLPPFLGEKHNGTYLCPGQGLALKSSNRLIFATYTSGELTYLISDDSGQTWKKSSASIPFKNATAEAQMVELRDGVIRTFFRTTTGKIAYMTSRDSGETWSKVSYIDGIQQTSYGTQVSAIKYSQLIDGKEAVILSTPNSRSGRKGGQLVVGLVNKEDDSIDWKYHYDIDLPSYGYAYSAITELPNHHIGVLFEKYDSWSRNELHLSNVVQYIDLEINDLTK

[4] = target: human cytosolic sialidase NEU2 (Homo sapiens, UniProt Q9Y3R4); assay: biochemical; assay type: biochemical; details: for IC50: IC50 with Neu5Acα2–3GalβpNP as sialidase substrate, NEU2
Chain of human cytosolic sialidase NEU2 (Q9Y3R4 whole entry): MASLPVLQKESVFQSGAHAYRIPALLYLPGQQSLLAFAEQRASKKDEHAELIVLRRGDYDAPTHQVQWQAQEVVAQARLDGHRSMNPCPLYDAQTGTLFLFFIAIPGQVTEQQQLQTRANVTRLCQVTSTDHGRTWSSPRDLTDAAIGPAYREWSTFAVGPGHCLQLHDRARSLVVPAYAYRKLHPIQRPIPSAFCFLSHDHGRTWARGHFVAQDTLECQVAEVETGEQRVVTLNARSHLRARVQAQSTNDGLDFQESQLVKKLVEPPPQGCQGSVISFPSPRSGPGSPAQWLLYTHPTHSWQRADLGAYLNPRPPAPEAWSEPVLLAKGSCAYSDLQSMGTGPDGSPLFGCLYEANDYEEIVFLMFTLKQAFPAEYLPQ

[5] = IC50 with Neu5Acα2–3GalβpNP as sialidase substrate
[6] = IC50 with Neu5Acα2–6GalβpNP as sialidase substrate

## [N-]=[N+]=NCC(=O)N[C@H]1[C@H]([C@H](O)[C@H](O)CN=[N+]=[N-])OC(C(=O)O)=C[C@@H]1O [Neu5AcN39N32en (5), 2,6-Anhydro-9-azido-5-(2-azidoacetamido)-3,5,9-trideoxy-D-glycero-D-galacto-non-2-enonic acid]
β-galactosidase
  inhibitory effect against β-galactosidase: no inhibitory effect
[1]
  IC50: 16000 µM
[2]; [5]
  IC50: 140 µM
[2]; [6]
  IC50: 110 µM
[3]
  IC50: > 1000 µM

## COC[C@@H](O)[C@@H](O)[C@@H]1OC(C(=O)O)=C[C@H](O)[C@H]1NC(C)=O [Neu5Ac9Me2en (6), 5-Acetamido-2,6-anhydro-3,5-dideoxy-9-O-methyl-D-glycero-D-galacto-non-2-enonic acid]
β-galactosidase
  inhibitory effect against β-galactosidase: no inhibitory effect
[1]
  IC50: 130 µM
[4]
  IC50: 1100 µM
[2]; [5]
  IC50: 130 µM
[2]; [6]
  IC50: 120 µM
[3]
  IC50: 3000 µM

## CC(=O)N[C@H]1[C@H]([C@H](O)[C@H](O)CN=[N+]=[N-])OC(C(=O)O)=C[C@@H]1O [Neu5Ac9N32en (3), 5-Acetamido-2,6-anhydro-9-azido-3,5,9-trideoxy-D-glycero-D-galacto-non-2-enonic acid]
β-galactosidase
  inhibitory effect against β-galactosidase: no inhibitory effect
[1]
  IC50: 210 µM
[4]
  fold less efficient than Neu5Ac2en (1) against human NEU2: 2.4 fold
  IC50: 43 ± 2 µM
[2]
  fold less efficient than Neu5Ac2en (1) against V. cholerae sialidase: 2.3 fold
[2]; [6]
  IC50: 8.7 ± 1 µM
[3]
  IC50: 3300 µM

## CCCNC[C@@H](O)[C@@H](O)[C@@H]1OC(C(=O)O)=C[C@H](O)[C@H]1NC(C)=O [Neu5Ac9NPro2en (7), 5-Acetamido-9-aminopropyl-2,6-anhydro-3,5,9-trideoxy-D-glycero-D-galacto-non-2-enonic acid]
β-galactosidase
  inhibitory effect against β-galactosidase: no inhibitory effect
[1]
  IC50: 2300 µM
[2]; [5]
  IC50: > 1000 µM
[2]; [6]
  IC50: > 1000 µM
[3]
  IC50: 5400 µM

## CC(=O)N[C@H]1[C@H]([C@H](O)[C@H](O)CO)OC(C(=O)O)=C[C@@H]1O [Neu5Ac2en (1), 2-deoxy-2,3-dehydro-N-acetylneuraminic acid, reference compound]
β-galactosidase
  inhibitory effect against β-galactosidase: no inhibitory effect

## [N-]=[N+]=NC[C@@H](O)[C@@H](O)[C@@H]1OC(C(=O)O)=C[C@H](O)[C@H]1NC(=O)CO [Neu5Gc9N32en (4), 2,6-Anhydro-9-azido-3,5,9-trideoxy-5-(2-hydroxyacetamido)-D-glycero-D-galacto-non-2-enonic acid]
β-galactosidase
  inhibitory effect against β-galactosidase: no inhibitory effect
[1]
  IC50: > 10000 µM
[4]
  IC50: 150 µM
[2]
  selectivity for V. cholerae sialidase among the five sialidases tested: selective inhibitor
[2]; [5]
  IC50: 18 ± 3 µM
[2]; [6]
  IC50: 13 ± 2 µM
[3]
  IC50: > 10000 µM
